Assay results reported in patent US9956293B2, “Targeted therapeutics” (Madrigal Pharmaceuticals, Inc., priority 2014, dated 2018).

tested on: HER2; assay: HER2 degradation assay with BT-474 cell line (Example 12, FACS); assay type: cell-based; conditions: Homo sapiens, BT-474; SDC-TRAPs of the 41st table

In the case of `CC(C)c1cc(-c2nnc(O)n2-c2ccc(CN3CCN(C(=O)c4ccc(CCc5c[nH]c6nc(N)[nH]c(=O)c56)cc4)CC3)cc2)c(O)cc1O` [SDC-TRAP-0068, 2-amino-5-(4-(4-(4-(3-(2,4-dihydroxy-5-isopropylphenyl)-5-hydroxy-4H-1,2,4-triazol-4-yl)benzyl)piperazine-1-carbonyl)phenethyl)-3H-pyrrolo[2,3-d]pyrimidin-4(7H)-one], the IC50 is reported as 262 nM.

same assay, conditions: Homo sapiens, BT-474; SDC-TRAPs of the 43rd table

In the case of `CCc1c2c(nc3ccc(OCCN4CCN(c5ccc(-n6c(O)nnc6-c6cc(C(C)C)c(O)cc6O)cc5)CC4)cc13)-c1cc3c(c(=O)n1C2)COC(=O)C3(O)CC` (stereo not drawn) [SDC-TRAP-0057, 9-(2-(4-(4-(3-(2,4-dihydroxy-5-isopropylphenyl)-5-hydroxy-4H-1,2,4-triazol-4-yl)phenyl)piperazin-1-yl)ethoxy)-4,11-diethyl-4-hydroxy-1H-pyrano[3′,4′:6,7]indolizino[1,2-b]quinoline-3,14(4H,12H)-dione], the IC50 is reported as 449 nM.

same assay, conditions: Homo sapiens; BT-474 cells

`CCNC(=O)c1nnc(-c2cc(C(C)C)c(O)cc2O)n1-c1ccc(C(=O)N2CCC[C@H]2C(=O)Nc2cccc3c2CN(C2CCC(=O)NC2=O)C3=O)cc1` (stereo partly drawn) [SDC-TRAP-0190, 5-(2,4-dihydroxy-5-isopropylphenyl)-4-(4-((2S)-2-((2-(2,6-dioxopiperidin-3-yl)-1-oxoisoindolin-4-yl)carbamoyl)pyrrolidine-1-carbonyl)phenyl)-N-ethyl-4H-1,2,4-triazole-3-carboxamide] and `CCNC(=O)c1nnc(-c2cc(C(C)C)c(O)cc2O)n1-c1ccc(C(=O)N2CCC(COC(=O)Nc3cccc4c3CN(C3CCC(=O)NC3=O)C4=O)CC2)cc1` (stereo not drawn) [SDC-TRAP-0136, (1-(4-(3-(2,4-dihydroxy-5-isopropylphenyl)-5-(ethylcarbamoyl)-4H-1,2,4-triazol-4-yl)benzoyl)piperidin-4-yl)methyl (2-(2,6-dioxopiperidin-3-yl)-1-oxoisoindolin-4-yl)carbamate] cannot be ordered by IC50: greater than 5000 nM for the first, greater than 5000 nM for the second.

First: CC(C)c1cc(-c2nnc(O)n2-c2ccc3c(ccn3CCC3CCN(CC(=O)Nc4cccc5c4CN(C4CCC(=O)NC4=O)C5=O)CC3)c2)c(O)cc1O (stereo not drawn) [SDC-TRAP-0129, 2-(4-(2-(5-(3-(2,4-dihydroxy-5-isopropylphenyl)-5-hydroxy-4H-1,2,4-triazol-4-yl)-1H-indol-1-yl)ethyl)piperidin-1-yl)-N-(2-(2,6-dioxopiperidin-3-yl)-1-oxoisoindolin-4-yl)acetamide]
Second: CC(C)c1cc(-c2nnc(O)n2-c2ccc3c(c2)cc(CN2CCC(COC(=O)Nc4cccc5c4CN(C4CCC(=O)NC4=O)C5=O)CC2)n3C)c(O)cc1O (stereo not drawn) [SDC-TRAP-0155, (1-((5-(3-(2,4-dihydroxy-5-isopropylphenyl)-5-hydroxy-4H-1,2,4-triazol-4-yl)-1-methyl-1H-indol-2-yl)methyl)piperidin-4-yl)methyl (2-(2,6-dioxopiperidin-3-yl)-1-oxoisoindolin-4-yl)carbamate]
The IC50 of the first is 3.8-fold higher: 4520 nM for the first, 1190 nM for the second. The second is the more potent here.

First: CCNC(=O)c1nnc(-c2cc(C(C)C)c(O)cc2O)n1-c1ccc(C(=O)N[C@@H](C)C(=O)Nc2cccc3c2CN(C2CCC(=O)NC2=O)C3=O)cc1 (stereo partly drawn) [SDC-TRAP-0166, 5-(2,4-dihydroxy-5-isopropylphenyl)-4-(4-(((2S)-1-((2-(2,6-dioxopiperidin-3-yl)-1-oxoisoindolin-4-yl)amino)-1-oxopropan-2-yl)carbamoyl)phenyl)-N-ethyl-4H-1,2,4-triazole-3-carboxamide]
Second: CCNC(=O)c1nnc(-c2cc(C(C)C)c(O)cc2O)n1-c1ccc(C(=O)N(C)CC(=O)Nc2cccc3c2CN(C2CCC(=O)NC2=O)C3=O)cc1 (stereo not drawn) [SDC-TRAP-0147, 5-(2,4-dihydroxy-5-isopropylphenyl)-4-(4-((2-((2-(2,6-dioxopiperidin-3-yl)-1-oxoisoindolin-4-yl)amino)-2-oxoethyl)(methyl)carbamoyl)phenyl)-N-ethyl-4H-1,2,4-triazole-3-carboxamide]
The IC50 of the first is higher: greater than 5000 nM for the first, 4330 nM for the second.

Going from `CC(C)c1cc(-c2nnc(O)n2-c2ccc(CN3CCN(CC(=O)Nc4cccc5c4CN(C4CCC(=O)NC4=O)C5=O)CC3)cc2)c(O)cc1O` (stereo not drawn) [SDC-TRAP-0128, 2-(4-(4-(3-(2,4-dihydroxy-5-isopropylphenyl)-5-hydroxy-4H-1,2,4-triazol-4-yl)benzyl)piperazin-1-yl)-N-(2-(2,6-dioxopiperidin-3-yl)-1-oxoisoindolin-4-yl)acetamide] to `CC(C)c1cc(-c2nnc(O)n2-c2ccc(CN3CCN(c4cnc(C(=O)Nc5cccc6c5CN(C5CCC(=O)NC5=O)C6=O)cn4)CC3)c(F)c2)c(O)cc1O` (stereo not drawn) [SDC-TRAP-0170, 5-(4-(4-(3-(2,4-dihydroxy-5-isopropylphenyl)-5-hydroxy-4H-1,2,4-triazol-4-yl)-2-fluorobenzyl)piperazin-1-yl)-N-(2-(2,6-dioxopiperidin-3-yl)-1-oxoisoindolin-4-yl)pyrazine-2-carboxamide], the IC50 falls from 6910 nM to 296 nM (23-fold). The second is the more potent here.

Compared with `CC(C)c1cc(-c2nnc(O)n2-c2ccc3c(ccn3CCN(C)C(=O)CCn3cc(F)c(=O)[nH]c3=O)c2)c(O)cc1O` [SDC-TRAP-0051, N-(2-(5-(3-(2,4-dihydroxy-5-isopropylphenyl)-5-hydroxy-4H-1,2,4-triazol-4-yl)-1H-indol-1-yl)ethyl)-3-(5-fluoro-2,4-dioxo-3,4-dihydropyrimidin-1(2H)-yl)-N-methylpropanamide], `CC(C)c1cc(-c2nnc(O)n2-c2ccc(CN3CCN(C(=O)c4ccc(COC(=O)Nc5cccc6c5CN(C5CCC(=O)NC5=O)C6=O)cc4F)CC3)c(F)c2)c(O)cc1O` (stereo not drawn) [SDC-TRAP-0174, 4-(4-(4-(3-(2,4-dihydroxy-5-isopropylphenyl)-5-hydroxy-4H-1,2,4-triazol-4-yl)-2-fluorobenzyl)piperazine-1-carbonyl)-3-fluorobenzyl (2-(2,6-dioxopiperidin-3-yl)-1-oxoisoindolin-4-yl)carbamate] is lower in IC50: greater than 5000 nM for the first, 693 nM for the second. The second is the more potent here.

Going from `CCNC(=O)c1nnc(-c2cc(C(C)C)c(O)cc2O)n1-c1ccc(CN2CCC(C(=O)N3CCC(COC(=O)Nc4cccc5c4CN(C4CCC(=O)NC4=O)C5=O)CC3)CC2)cc1` (stereo not drawn) [SDC-TRAP-0124, (1-(1-(4-(3-(2,4-Dihydroxy-5-isopropylphenyl)-5-(ethylcarbamoyl)-4H-1,2,4-triazol-4-yl)benzyl)piperidine-4-carbonyl)piperidin-4-yl)methyl (2-(2,6-dioxopiperidin-3-yl)-1-oxoisoindolin-4-yl)carbamate] to `CCNC(=O)c1nnc(-c2cc(C(C)C)c(O)cc2O)n1-c1ccc(CN2CCC(C(=O)N[C@H](C(=O)Nc3cccc4c3CN(C3CCC(=O)NC3=O)C4=O)C(C)C)CC2)cc1` (stereo partly drawn) [SDC-TRAP-0163, 1-(4-(3-(2,4-dihydroxy-5-isopropylphenyl)-5-(ethylcarbamoyl)-4H-1,2,4-triazol-4-yl)benzyl)-N-((2S)-1-((2-(2,6-dioxopiperidin-3-yl)-1-oxoisoindolin-4-yl)amino)-3-methyl-1-oxobutan-2-yl)piperidine-4-carboxamide], the IC50 rises from 358 nM to 885 nM (2.5-fold). The first is the more potent here.

`CCNC(=O)c1nnc(-c2cc(C(C)C)c(O)cc2O)n1-c1ccc(C(=O)N2CCN(C(=O)c3ccc(COC(=O)Nc4cccc5c4CN(C4CCC(=O)NC4=O)C5=O)cc3)CC2)cc1` (stereo not drawn) [SDC-TRAP-0177, 4-(4-(4-(3-(2,4-dihydroxy-5-isopropylphenyl)-5-(ethylcarbamoyl)-4H-1,2,4-triazol-4-yl)benzoyl)piperazine-1-carbonyl)benzyl (2-(2,6-dioxopiperidin-3-yl)-1-oxoisoindolin-4-yl)carbamate] gave an IC50 of 4350 nM.
